From patent US20210070748A1, “INHIBITORS OF BRUTONS TYROSINE KINASE” (Pharmacyclics LLC, priority 2015, published 2021)

The molecules below were run against T1, BTK-WT (Homo sapiens, UniProt Q06187) (assay: Btk in vitro inhibitory activity (one of Method A TR-FRET, Method B electrophoretic mobility shift, Method C radiometric filter binding)). Settings: Table 10, Formula A-I; read-out: BTK-WT (IC50).
T1 construct: purified from insect cells as a full-length construct containing an N-terminal 6X-His tag; His6 (N); made in house; host or cells: insect cells (baculovirus Sf21 in Method B)
T1 sequence (Q06187 whole entry): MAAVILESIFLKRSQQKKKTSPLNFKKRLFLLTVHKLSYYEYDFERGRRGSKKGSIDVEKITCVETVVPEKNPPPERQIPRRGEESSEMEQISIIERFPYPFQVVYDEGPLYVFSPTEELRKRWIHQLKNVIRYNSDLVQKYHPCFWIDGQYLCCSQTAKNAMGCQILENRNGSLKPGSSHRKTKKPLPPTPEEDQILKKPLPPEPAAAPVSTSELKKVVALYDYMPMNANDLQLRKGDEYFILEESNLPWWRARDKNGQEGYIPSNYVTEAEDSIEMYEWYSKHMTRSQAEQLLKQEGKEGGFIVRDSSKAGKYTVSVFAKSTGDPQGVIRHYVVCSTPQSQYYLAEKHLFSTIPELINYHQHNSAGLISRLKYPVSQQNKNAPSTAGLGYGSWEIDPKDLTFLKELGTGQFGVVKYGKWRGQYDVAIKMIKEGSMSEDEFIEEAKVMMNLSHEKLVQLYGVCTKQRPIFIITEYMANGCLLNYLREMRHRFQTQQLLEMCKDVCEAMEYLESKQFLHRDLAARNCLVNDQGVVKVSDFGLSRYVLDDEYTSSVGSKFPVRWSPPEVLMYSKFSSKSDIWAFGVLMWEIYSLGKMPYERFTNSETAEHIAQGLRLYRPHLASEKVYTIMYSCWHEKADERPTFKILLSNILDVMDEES
Assay type: biochemical
Method: Btk kinase activity is determined using a time-resolved fluorescence resonance energy transfer (TR-FRET) methodology. Measurements are performed in a reaction volume of 50 μL using 96-well assay plates. […] The reaction is quenched by the addition of 1.2 equivalents of EDTA (relative to divalent cation) in 25 μL of 1× Lance buffer (Perkin-Elmer). […] The TR-FRET signal is measured on a multimode plate reader with an excitation wavelength (λEx) of 330 nm and detection wavelengths (λEm) of 615 and 665 nm. Activity is determined by the ratio of the fluorescence at 665 nm to that at 615 nm. For each compound, enzyme activity is measured at various concentrations of compound. Negative control reactions are performed in the absence of inhibitor in replicates of six, and two no-enzyme controls are used to determine baseline fluorescence levels. Inhibition constants, Ki(app), were obtained using the program BatchKi(Kuzmic et al. (2000), Anal. Biochem. 286:45-50). IC50s are obtained according to the equation:
IC50={Ki(app)/(1+[ATP]/Km^ATP)}+[E]total/2;
Kinase activity is measured in vitro using electrophoretic mobility shift assay. The kinase reactions are assembled in a total volume of 25 μL in 384 well plates. […] The reaction is incubated for one hour and is quenched by the addition of 45 μL of termination buffer (100 mM HEPES, pH7.5, 0.01% Triton X-100, 30 mM EDTA). The terminated reactions are analyzed using 12 channel LabChip® 3000 microfluidic detection instrument (Caliper Life Sciences). […] Change in the relative fluorescence intensity of the substrate and product peaks is the parameter measured, reflecting enzyme activity. In the presence of an inhibitor, the ratio between product and substrate is altered: the signal of the product decreases, while the signal of the substrate increases.
Activity in each sample is determined as the product to sum ratio (PSR): P/(S+P), where P is the peak height of the product peptide and S is the peak height of the substrate peptide. For each compound, enzyme activity is measured at various concentrations (12 concentrations of compound spaced by 3× dilution intervals). Negative control samples (0%-inhibition in the absence of inhibitor) and positive control samples (100%-inhibition, in the presence of 20 mM EDTA) are assembled in replicates of four and are used to calculate %-inhibition values for each inhibitor at each concentration. Percent inhibition (Pinh) is determined using following equation:
Pinh=(PSR0%-PSRinh)/(PSR0%−PSR100%)*100, where PSRinh is the product sum ratio in the presence of inhibitor, PSR0% is the average product sum ration in the absence of inhibitor and PSR100% is the average product sum ratio in 100%-inhibition control samples;
The IC50 values of inhibitors are determined by 4 parameter sigmoidal dose-response model fitting of the inhibition curves (Pinh versus inhibitor concentration) using XLfit 4 software.
Human Btk kinase (Genbank accession # NP_000052) was purified from insect cells as a full-length construct containing an N-terminal 6X-His tag. Btk kinase activity was determined using a radiometric filter binding assay. Measurements are performed in a low μL reaction volume 384-well assay plates. […] IC50 values and curve fits were obtained using Prism (GraphPad Software).
C=CC(=O)N[C@@H]1CCCN(c2cnc(C(N)=O)c(Nc3cccc(-c4ncccn4)c3)n2)C1 [Example A-88, (R)-5-(3-acrylamidopiperidin-1-yl)-3-(3-(pyrimidin-2-yl)phenylamino)pyrazine-2-carboxamide] gave an IC50 of 100 to 1000 nM.
Molecule C=CC(=O)N[C@@H]1CCCN(c2cnc(C(N)=O)c(Nc3cc(C)ns3)n2)C1 [Example A-86, (R)-5-(3-acrylamidopiperidin-1-yl)-3-(3-methylisothiazol-5-ylamino)pyrazine-2-carboxamide] has an IC50 of at most 100 nM.
Work on C=CC(=O)N[C@H]1CCCN(c2cnc(C(N)=O)c(Nc3ccc(-c4ncccn4)cc3)n2)C1 [Example A-89, (S)-5-(3-acrylamidopiperidin-1-yl)-3-(4-(pyrimidin-2-yl)phenylamino)pyrazine-2-carboxamide] yielded an IC50 of at most 100 nM.
C=CC(=O)N[C@H]1CCCN(c2cnc(C(N)=O)c(Nc3cc(C)ns3)n2)C1 [Example A-87, (S)-5-(3-acrylamidopiperidin-1-yl)-3-(3-methylisothiazol-5-ylamino)pyrazine-2-carboxamide] showed an IC50 of at most 100 nM.
C=CC(=O)N1CCCN(c2nnc(C(N)=O)c(Nc3ccc(C(C)C)cc3)n2)CC1 [Example A-90, 3-(4-acryloyl-1,4-diazepan-1-yl)-5-(4-isopropylphenylamino)-1,2,4-triazine-6-carboxamide] was tested, and the IC50 was at most 100 nM.

Same assay, conditions: Table 11, Formula B-I; read-out: BTK-WT (IC50)
For C=CC(=O)N[C@@H]1CCCC[C@@H]1Nc1nnc(C(N)=O)c(Nc2ccc(C(C)C)cc2)n1 [Example B-10, 3-((1S,2R)-2-acrylamido-cyclohexylamino)-5-(4-isopropylphenylamino)-1,2,4-triazine-6-carboxamide], the IC50 was at most 100 nM.
With C=CC(=O)N[C@H]1CCCC[C@H]1Nc1nnc(C(N)=O)c(Nc2ccc(C(C)C)cc2)n1 [Example B-7, 3-((1R,2S)-2-acrylamido-cyclohexylamino)-5-(4-isopropylphenylamino)-1,2,4-triazine-6-carboxamide] the IC50 was at most 100 nM.
C=CC(=O)N[C@H]1CCCC[C@@H]1Nc1nnc(C(N)=O)c(Nc2ccc(C(C)C)cc2)n1 [Example B-9, 3-((1S,2S)-2-acrylamido-cyclohexylamino)-5-(4-isopropylphenylamino)-1,2,4-triazine-6-carboxamide] showed an IC50 of at most 100 nM.
C=CC(=O)N[C@H]1CCC[C@@H](Nc2nnc(C(N)=O)c(Nc3ccc(C(C)C)cc3)n2)C1 (racemic) [Example B-12, 3-((1R,3S)-3-acrylamido-cyclohexylamino)-5-(4-isopropylphenylamino)-1,2,4-triazine-6-carboxamide] was tested, and the IC50 was at most 100 nM.
C=CC(=O)N[C@@H]1CCCC[C@H]1Nc1nnc(C(N)=O)c(Nc2ccc(C(C)C)cc2)n1 [Example B-8, 3-((1R,2R)-2-acrylamido-cyclohexylamino)-5-(4-isopropylphenylamino)-1,2,4-triazine-6-carboxamide] gave an IC50 of at most 100 nM.
In the case of C=CC(=O)N[C@@H]1CCC[C@@H](Nc2nnc(C(N)=O)c(Nc3ccc(C(C)C)cc3)n2)C1 (racemic) [Example B-11, 3-((1R,3R)-3-acrylamido-cyclohexylamino)-5-(4-isopropylphenylamino)-1,2,4-triazine-6-carboxamide], the IC50 is reported as at most 100 nM.
In the case of C=CC(=O)N(C)[C@H]1CC[C@H](N(C)c2cnc(C(N)=O)c(Nc3cc(C)ns3)n2)CC1 [Example B-6, 5-(methyl((1r,4r)-4-(N-methylacrylamido)cyclohexyl)amino)-3-(3-methylisothiazol-5-ylamino)pyrazine-2-carboxamide], the IC50 is reported as at most 100 nM.

Same assay, conditions: Table 12, Formula C-I; read-out: BTK-WT (IC50)
C=CC(=O)N1CCC(CN(C)c2cnc(C(N)=O)c(Nc3ccc(C(C)C)cc3)n2)CC1 [Example C-24, 5-(((1-acryloylpiperidin-4-yl)methyl)(methyl)amino)-3-(4-isopropylphenylamino)pyrazine-2-carboxamide] showed an IC50 of at most 100 nM.
In the case of C=CC(=O)NCCCC(=O)N1CCC[C@H](Nc2nnc(C(N)=O)c(Nc3ccc(C(C)C)cc3)n2)C1 [Example C-21, (S)-3-(1-(4-acrylamidobutanoyl)piperidin-3-ylamino)-5-(4-isopropylphenylamino)-1,2,4-triazine-6-carboxamide], the IC50 is reported as 100 to 1000 nM.
Molecule CC(C)c1ccc(Nc2nc(N[C@H]3CCCN(C(=O)CCCN)C3)nnc2C(N)=O)cc1 [Example C-20, (S)-3-(1-(4-aminobutanoyl)piperidin-3-ylamino)-5-(4-isopropylphenylamino)-1,2,4-triazine-6-carboxamide] has an IC50 of 100 to 1000 nM.
In the case of C=CC(=O)N1CCC(CNc2nnc(C(N)=O)c(Nc3ccc(C(C)C)cc3)n2)CC1 [Example C-22, 3-((1-acryloylpiperidin-4-yl)methylamino)-5-(4-isopropylphenylamino)-1,2,4-triazine-6-carboxamide], the IC50 is reported as at most 100 nM.
In the case of C=CC(=O)N1CCC[C@@H](N(C)c2nnc(C(N)=O)c(Nc3ccc(C(C)C)cc3)n2)C1 [Example C-27, (R)-3-((1-acryloylpiperidin-3-yl)(methyl)amino)-5-(4-isopropylphenylamino)-1,2,4-triazine-6-carboxamide], the IC50 is reported as at most 100 nM.
C=CC(=O)N1CCC[C@H](N(C)c2cnc(C(N)=O)c(Nc3cc(-c4ccccc4)ns3)n2)C1 [Example C-25, (S)-5-((1-acryloylpiperidin-3-yl)(methyl)amino)-3-(3-phenylisothiazol-5-ylamino)pyrazine-2-carboxamide] gave an IC50 of at most 100 nM.
Molecule C=CC(=O)N1CCC[C@@H](Nc2nnc(C(N)=O)c(Nc3ccc(C(C)C)cc3)n2)C1 [Example C-26, (R)-3-(1-acryloylpiperidin-3-ylamino)-5-(4-isopropylphenylamino)-1,2,4-triazine-6-carboxamide] has an IC50 of at most 100 nM.
With C=CC(=O)N1CCC[C@H](N(C)c2cnc(C(N)=O)c(Nc3ccc(C(C)C)cc3)n2)C1 [Example C-23, (S)-5-((1-acryloylpiperidin-3-yl)(methyl)amino)-3-(4-isopropylphenylamino)pyrazine-2-carboxamide] the IC50 was at most 100 nM.
C=CC(=O)N1CCC[C@@H](Nc2nnc(C(N)=O)c(Nc3ccc(C(C)C)cc3)n2)[C@H]1C [Example C-28, 3-((2R,3R)-1-acryloyl-2-methylpiperidin-3-ylamino)-5-(4-isopropylphenylamino)-1,2,4-triazine-6-carboxamide] gave an IC50 of at most 100 nM.
C=CC(=O)NCC(=O)N1CCC[C@H](Nc2nnc(C(N)=O)c(Nc3ccc(C(C)C)cc3)n2)C1 [Example C-19, (S)-3-(1-(2-acrylamidoacetyl)piperidin-3-ylamino)-5-(4-isopropylphenylamino)-1,2,4-triazine-6-carboxamide] showed an IC50 of 100 to 1000 nM.
CC(C)c1ccc(Nc2nc(N[C@H]3CCCN(C(=O)CN)C3)nnc2C(N)=O)cc1 [Example C-18, (S)-3-(1-(2-aminoacetyl)piperidin-3-ylamino)-5-(4-isopropylphenylamino)-1,2,4-triazine-6-carboxamide] gave an IC50 of 100 to 1000 nM.
C=CC(=O)N1CCC[C@H](Nc2nnc(C(N)=O)c(Nc3ccc(C(C)C)cc3)n2)C1 [Example C-17, (S)-3-(1-acryloylpiperidin-3-ylamino)-5-(4-isopropylphenylamino)-1,2,4-triazine-6-carboxamide] gave an IC50 of at most 100 nM.
